Data as given in ChEMBL document CHEMBL5385848, “Discovery of novel hydroxyamidine based indoleamine 2,3-dioxygenase 1 (IDO1) and thioredoxin reductase 1 (TrxR1) dual inhibitors” (Eur J Med Chem, 2023).
The source made the active and inactive calls. The rule behind the calls is not given here.

How the values were obtained:
[1] = target: Indoleamine 2,3-dioxygenase 1 (Homo sapiens, UniProt P14902); assay: Inhibition of recombinant human IDO1 using L-Trp as substrate incubated for 1 hr
[2] = tested on: HCT-116; assay: Antiproliferative activity against human HCT-116 cells assessed as cell growth inhibition incubated for 48 hrs by CCK-8 assay; assay type: functional, cell-based; settings: HCT-116, 48 h
[3] = target: T1, Thioredoxin reductase 1, cytoplasmic (Rattus norvegicus, UniProt O89049); assay: Inhibition of recombinant rat TrxR1 incubated for 1 hr in presence of NADPH by microplate reader analysis
T1 sequence (O89049 whole entry): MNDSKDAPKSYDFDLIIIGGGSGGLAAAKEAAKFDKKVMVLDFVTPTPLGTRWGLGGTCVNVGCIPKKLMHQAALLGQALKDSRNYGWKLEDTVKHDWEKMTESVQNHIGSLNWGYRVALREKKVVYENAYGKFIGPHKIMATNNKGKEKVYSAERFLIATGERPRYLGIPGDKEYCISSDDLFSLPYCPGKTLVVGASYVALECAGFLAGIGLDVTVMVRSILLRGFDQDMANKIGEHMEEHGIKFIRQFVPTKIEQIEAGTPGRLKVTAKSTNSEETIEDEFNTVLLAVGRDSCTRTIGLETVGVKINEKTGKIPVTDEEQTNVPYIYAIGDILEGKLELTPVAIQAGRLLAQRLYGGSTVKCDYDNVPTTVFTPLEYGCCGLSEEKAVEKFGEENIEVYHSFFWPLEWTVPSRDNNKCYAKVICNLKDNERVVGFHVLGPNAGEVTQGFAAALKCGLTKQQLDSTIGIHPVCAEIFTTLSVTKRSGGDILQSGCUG

[4] = Cytotoxicity against mouse CT26 cells incubated for 48 hrs by CCK-8 assay; assay type: toxicity, cell-based
[5] = Cytotoxicity against human HeLa cells incubated for 48 hrs by CCK-8 assay; assay type: toxicity, cell-based
[6] = Cytotoxicity against human HCT-116 cells incubated for 48 hrs by CCK-8 assay; assay type: toxicity, cell-based
[7] = Toxicity in athymic nude BALB/c mouse assessed as weight gain at 60 mg/kg, ig administered daily for 28 days and measured every 4 days; assay type: organism-based; settings: in vivo, po, 672 h, time 28 day
[8] = target: T2, Indoleamine 2,3-dioxygenase 2 (Homo sapiens, UniProt Q6ZQW0); assay: Inhibition of IDO2 (unknown origin) using D-Trp as substrate incubated for 1 hr
T2 sequence (Q6ZQW0 whole entry): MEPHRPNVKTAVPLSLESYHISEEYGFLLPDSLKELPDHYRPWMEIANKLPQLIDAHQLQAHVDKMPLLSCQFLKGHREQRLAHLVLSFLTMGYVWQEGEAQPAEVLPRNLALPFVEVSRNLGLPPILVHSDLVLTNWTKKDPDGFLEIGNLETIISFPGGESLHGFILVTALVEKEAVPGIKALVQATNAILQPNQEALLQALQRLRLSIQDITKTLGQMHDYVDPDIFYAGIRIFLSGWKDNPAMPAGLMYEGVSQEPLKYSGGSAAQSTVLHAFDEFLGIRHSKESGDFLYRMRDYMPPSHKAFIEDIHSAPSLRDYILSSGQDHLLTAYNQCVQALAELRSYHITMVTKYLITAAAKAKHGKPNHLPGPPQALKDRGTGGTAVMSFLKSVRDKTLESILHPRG

[9] = target: Indoleamine 2,3-dioxygenase 1 (Mus musculus) (UniProt P28776); assay: In vivo inhibition of IDO1 in C57BL/6 mouse assessed as increase in plasma Trp level at 60 mg/kg, po administered once daily by LC-MS/MS analysis; assay type: functional, organism-based
Indoleamine 2,3-dioxygenase 1 (Mus musculus), sequence (P28776 whole entry, looked up): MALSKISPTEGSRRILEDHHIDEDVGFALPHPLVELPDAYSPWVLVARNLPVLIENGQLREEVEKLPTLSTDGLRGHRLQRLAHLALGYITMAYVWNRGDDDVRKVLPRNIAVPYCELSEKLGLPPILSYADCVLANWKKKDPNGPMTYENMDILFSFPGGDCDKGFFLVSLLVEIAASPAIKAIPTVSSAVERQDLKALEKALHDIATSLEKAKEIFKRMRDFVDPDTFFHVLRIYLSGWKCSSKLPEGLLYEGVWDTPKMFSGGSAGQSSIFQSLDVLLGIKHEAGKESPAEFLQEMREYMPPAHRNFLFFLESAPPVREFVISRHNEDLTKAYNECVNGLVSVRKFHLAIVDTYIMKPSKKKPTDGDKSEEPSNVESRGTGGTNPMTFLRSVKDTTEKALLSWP

[10] = target: T3, Thioredoxin reductase 1, cytoplasmic (Homo sapiens) (UniProt Q16881); assay: Inhibition of TrxR1 in human HeLa cells incubated for 24 hrs; assay type: cell-based
T3 sequence (whole entry): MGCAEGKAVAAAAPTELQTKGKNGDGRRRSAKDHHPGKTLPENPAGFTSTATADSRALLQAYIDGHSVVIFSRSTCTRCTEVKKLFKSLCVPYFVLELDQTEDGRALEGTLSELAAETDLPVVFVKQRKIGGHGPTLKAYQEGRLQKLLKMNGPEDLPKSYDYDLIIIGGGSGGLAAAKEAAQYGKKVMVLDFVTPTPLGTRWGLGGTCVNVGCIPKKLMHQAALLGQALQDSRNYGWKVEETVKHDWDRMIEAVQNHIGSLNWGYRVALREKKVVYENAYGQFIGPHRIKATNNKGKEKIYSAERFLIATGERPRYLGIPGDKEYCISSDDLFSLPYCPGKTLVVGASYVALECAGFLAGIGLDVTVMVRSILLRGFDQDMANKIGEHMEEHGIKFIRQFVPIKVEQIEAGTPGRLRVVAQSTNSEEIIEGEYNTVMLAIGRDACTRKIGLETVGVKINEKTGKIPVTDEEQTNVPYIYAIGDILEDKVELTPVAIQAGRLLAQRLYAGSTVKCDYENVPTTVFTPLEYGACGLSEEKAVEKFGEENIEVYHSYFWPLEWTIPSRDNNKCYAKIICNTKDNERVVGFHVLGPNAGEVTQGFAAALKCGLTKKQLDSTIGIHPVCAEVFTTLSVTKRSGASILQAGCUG

[11] = target: Indoleamine 2,3-dioxygenase 1 (Mus musculus) (UniProt P28776); assay: In vivo inhibition of IDO1 in C57BL/6 mouse assessed as reduction in plasma Kyn level at 60 mg/kg, po administered once daily by LC-MS/MS analysis; assay type: functional, organism-based
[12] = tested on: CT26; assay: Antitumor activity against mouse CT26 cells implanted in athymic nude BALB/c mouse assessed as reduction in proliferative nTreg lymphocytes at 60 mg/kg, ig administered daily for 28 days and measured every 4 days by immunofluorescence analysis; assay type: functional, organism-based; settings: time 28.0 day
[13] = target: T3, Thioredoxin reductase 1, cytoplasmic (Homo sapiens); assay: Inhibition of TrxR1 in human HCT-116 cells incubated for 24 hrs; assay type: cell-based
[14] = target: T4, Thioredoxin reductase 1, cytoplasmic (Mus musculus) (UniProt Q9JMH6); assay: Inhibition of TrxR1 in mouse CT26 cells incubated for 24 hrs; assay type: cell-based
T4 sequence (whole entry): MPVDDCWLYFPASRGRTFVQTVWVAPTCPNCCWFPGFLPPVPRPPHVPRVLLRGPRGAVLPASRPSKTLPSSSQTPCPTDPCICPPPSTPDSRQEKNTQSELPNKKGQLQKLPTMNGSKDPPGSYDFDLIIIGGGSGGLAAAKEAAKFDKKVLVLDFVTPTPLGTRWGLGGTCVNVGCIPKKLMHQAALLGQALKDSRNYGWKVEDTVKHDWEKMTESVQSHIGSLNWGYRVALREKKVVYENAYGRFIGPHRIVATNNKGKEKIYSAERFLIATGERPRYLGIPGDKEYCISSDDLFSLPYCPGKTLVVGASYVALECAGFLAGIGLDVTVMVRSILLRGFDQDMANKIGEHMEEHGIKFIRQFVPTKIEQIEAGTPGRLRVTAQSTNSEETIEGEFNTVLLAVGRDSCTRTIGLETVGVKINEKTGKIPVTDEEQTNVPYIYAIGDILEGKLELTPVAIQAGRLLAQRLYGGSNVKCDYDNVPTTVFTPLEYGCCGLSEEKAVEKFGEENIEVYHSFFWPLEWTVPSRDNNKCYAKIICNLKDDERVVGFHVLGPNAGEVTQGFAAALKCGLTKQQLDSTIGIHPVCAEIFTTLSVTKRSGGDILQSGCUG

[15] = tested on: CT26; assay: Antitumor activity against mouse CT26 cells implanted in athymic nude BALB/c mouse assessed as reduction in CD4+CD25+Foxp3+ lymphocytes at 60 mg/kg, ig administered daily for 28 days and measured every 4 days by immunofluorescence analysis; assay type: functional, organism-based; settings: time 28.0 day
[16] = tested on: CT26; assay: Antitumor activity against mouse CT26 cells implanted in […] BALB/c mouse assessed as increase in CD8 T lymphocytes at 60 mg/kg, ig administered daily for 28 days and measured every 4 days; assay type: functional, organism-based; settings: time 28.0 day
[17] = tested on: CT26; assay: Antitumor activity against mouse CT26 cells implanted in […] BALB/c mouse assessed as reduction in nTreg lymphocytes at 60 mg/kg, ig administered daily for 28 days and measured every 4 days by immunofluorescence analysis; assay type: functional, organism-based; settings: time 28.0 day
[18] = target: Indoleamine 2,3-dioxygenase 1 (Mus musculus) (UniProt P28776); assay: In vivo inhibition of IDO1 in C57BL/6 mouse assessed as reduction in plasma Kyn/Trp ratio at 60 mg/kg, po administered once daily by LC-MS/MS analysis; assay type: functional, organism-based
[19] = tested on: CT26; assay: Antitumor activity against mouse CT26 cells implanted in […] BALB/c mouse assessed as increase in CD4 Th lymphocytes at 60 mg/kg, ig administered daily for 28 days and measured every 4 days; assay type: functional, organism-based; settings: time 28.0 day

Indoleamine 2,3-dioxygenase 1, sequence (P14902 whole entry): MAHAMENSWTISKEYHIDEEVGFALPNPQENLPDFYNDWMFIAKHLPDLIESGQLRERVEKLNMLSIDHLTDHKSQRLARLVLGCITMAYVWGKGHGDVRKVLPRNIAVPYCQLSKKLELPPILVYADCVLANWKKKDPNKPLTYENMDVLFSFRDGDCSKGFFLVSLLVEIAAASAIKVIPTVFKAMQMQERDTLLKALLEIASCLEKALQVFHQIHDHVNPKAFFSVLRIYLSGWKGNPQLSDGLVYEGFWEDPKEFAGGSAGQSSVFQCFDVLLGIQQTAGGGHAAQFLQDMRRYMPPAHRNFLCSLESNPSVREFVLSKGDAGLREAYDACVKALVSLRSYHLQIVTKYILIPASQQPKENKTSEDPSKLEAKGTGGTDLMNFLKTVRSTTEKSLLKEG

SMILES | IC50 [1] | IC50 [2] | IC50 [3] | other results
NS(=O)(=O)NCCNc1nonc1C(=NO)Nc1ccc(F)c(Br)c1 [EPACADOSTAT] |  |  |  | IC50 at 48 h [4]: 1.49 µM; IC50 at 48 h [5]: 4.63 µM; IC50 at 48 h [6]: 0.26 µM; Activity [7]: Toxic; IC50 [8]: 0.63 µM
O=C(Cc1cccc(OC(F)(F)F)c1)Nc1nnc(CCCNc2nonc2/C(=N\O)NCCc2ccc(Cl)cc2)s1 | 17.5 µM | 3.79 µM | 7.63 µM | 
O=C(Cc1ccc(O)cc1)Nc1nnc(CCCNc2nonc2/C(=N\O)NCCc2ccc(Br)cc2)s1 | 10.1 µM | 4.62 µM | 18.3 µM | 
O=C(Cc1ccccc1)Nc1nnc(CCCNc2nonc2/C(=N\O)NCCc2ccc(F)cc2)s1 | 13.2 µM | 5.59 µM | 25.2 µM | 
O=C(Cc1ccccc1)Nc1nnc(CCCNc2nonc2/C(=N\O)NCCc2ccc(Cl)cc2)s1 | 7.88 µM | 4.65 µM | 6.46 µM | 
NS(=O)(=O)NCCNc1nonc1/C(=N/O)Nc1ccc(F)c(Br)c1 |  |  |  | Activity [9]: Active; inhibition [10]: inactive; Activity [11]: Active; Activity [12]: Active; inhibition [13]: inactive; inhibition [14]: inactive; Activity [15]: Active; Activity [16]: Active; Activity [17]: Active; Activity [18]: Active; Activity [19]: Active
O=C(Cc1ccc(O)cc1)Nc1nnc(CCCNc2nonc2/C(=N\O)NCCc2ccc(Cl)cc2)s1 | 10.3 µM | 4.42 µM | 1.96 µM | 

The remaining compounds from weak to strong by IC50 [1], led by results:

IC50 [1] | IC50 [2] | IC50 [3] | SMILES | other results
5.58 µM | 3.1 µM | 10.5 µM | O=C(Cc1cccc(OC(F)(F)F)c1)Nc1nnc(CCCNc2nonc2/C(=N\O)NCCc2ccc(Br)cc2)s1 | 
4.37 µM | 5.31 µM | 13.5 µM | O=C(Cc1ccc(O)cc1)Nc1nnc(CCCNc2nonc2/C(=N\O)NCCc2ccc(F)cc2)s1 | 
0.12 µM | 5.25 µM | 3.69 µM | O=C(Cc1cccc(OC(F)(F)F)c1)Nc1nnc(CCCNc2nonc2/C(=N\O)Nc2ccc(F)c(Br)c2)s1 | 
0.06 µM | 5.98 µM | 3.74 µM | O=C(Cc1ccccc1)Nc1nnc(CCCNc2nonc2/C(=N\O)Nc2ccc(F)c(Br)c2)s1 | 
